How the values were obtained:
[1] = BMAA in dried skin of flying fox museum specimens (HPLC); conditions: Pteropus mariannus dried skin
Description: BMAA levels were measured in tissues of Cycas micronesica Hill from Guam, and tissues of Pteropus mariannus mariannus, an indigenous flying fox (bat) of Guam. Because Pteropus mariannus mariannus is now highly endangered, BMAA levels were measured in skin tissue from museum specimens of three flying foxes that were collected five decades ago in Guam, preserved as dried study skins, and deposited at the Museum of Vertebrate Zoology (MVZ), at the University of California, Berkeley.
BMAA was detected using high performance liquid chromatography (HPLC), and results were confirmed with thin layer chromatography (TLC) and gas chromatography-mass spectroscopy (GC-MS). For BMAA analysis, free amino acid extracts of flying fox and cycad tissues were prepared. Tissue samples were rehydrated for 30 minutes with water or trichloroacetic acid (mean tissue prep 80 mg/ml±32 SD), macerated, and filtered. Extracts were derivatized with 6-aminoquinolyl-N-hydrozysuccinimidyl carbamate (ACQ) following standardized protocols. […] The concentration of BMAA in samples was determined by the fluorescent tag using a Waters 2487 Dual-1 Fluorescence Detector, with excitation at 250 nm and emission at 395 nm. Detection of the ACQ-derivatized BMAA was dependent on concentration and quantification was accomplished with comparison of equal amounts of BMAA and a norleucine internal standard (representing a single mid-range concentration) resulting in a mean response of 51.2%. […] The limits of detection (LOD, defined as the lowest concentration of an analyte in a sample that can be detected though not necessarily quantitated) and limits of quantification (LOQ, the concentration within the linear range of the calibration curve relating absorbance to concentration) were determined by a concentration gradient of an authenticated standard (Sigma Chemical Co., St. Louis, Mo.). […] For data interpretations, all sample analyses were quantified within the range of the LOQ or were reported as not detected (ND) (Table 1). […]

[2] = Free and protein-associated BMAA in superior frontal gyrus tissue of patients; parameters: species or system human
Description: Tissues were provided by Dr. Patrick McGeer of the University of British Columbia, Vancouver, B.C., Canada. Autopsied tissues from patients were fixed in paraformaldehyde prior to storage in 15% buffered sucrose maintenance solution, where the time interval between death and autopsy varied from 4 hours to 5 days. Familial relationships, clinical histories, and histochemical characteristics of the Chamorro patients had been disclosed previously (McGeer et al, 1997, Neurology 49, 400-409). In addition, autopsied tissued from Canadian patients was provided, including two samples from two (2) Canadian patients who were clinically diagnosed with Alzheimer's disease prior to death, and thirteen (13) Canadian patients who died of natural causes other than progressive neurodegenerative diseases.
Tissues were homogenized twice in 0.1 N trichloroacetic acid and centrifuged at 15,800×g for 3 min to precipitate proteins and extract free amino acids. Protein-bound BMAA was released by hydrolysis of the precipitate at 110° C. in constant boiling 6N HCl for 24 hours. Particulate matter was removed from a 500 μl aliquot by ultrafiltration (Ultrafree-MC, Millipore Corp.) at 15,800×g and the resulting extract was freeze-dried. Amino acids were resuspended in 20 mM HCl, applied to a Sep-Pac C18 cartridge equilibrated with sequential washes of 100% methanol, 50% methanol in water, and a gradient of borate buffer:acetronitrile (0.5M borate:0-60% CH3CN) at 20% increments. BMAA in sample extracts was derivatized with 6-aminoquinolyl-N-hydroxysuccinimidyl carbamate following standardized protocols (Banack et al., 2003, Neurology 61: 387-389). Amino acids were quantified via HPLC separation as described above (Example 3). The presence of BMAA in the samples, as well as the identity and purity of the BMAA peak in the HPLC fractions, was verified by liquid chromatography mass spectroscopy (LC-MS) using an Agilent 1100 HPLC coupled with a variable wavelength diode array detector (DAD) and an SL single quadrapole MS with an atmospheric pressure ionization source (API) using the electrospray ionization interface (ESI). Compounds were separated on a Waters SymetryShield RP 18 column heated at 30° C. with a linear gradient elution of CH3CN (10 40%) in water. Nitrogen gas was purified and supplied to the ESI interface with a nebulizing pressure of 35 psi and two distinct modes were used for detection of compounds within the MS. The DAD detected compounds at 254 nm with a full spectral scan from 200 600 nm and 0.5 nm resolution within a semi micro flow cell. The initial signal was determined in positive scan mode with a 100 600 Da range at 50V fragmentor voltage. BMAA was identified using the extracted ion chromatogram in which the molecular ion peak was confirmed.

[3] = rats; cited from earlier work
[4] = Banack & Cox, 2003; cited from earlier work
cyanobacterial symbiont = assay: Effect of amino acid supplementation of BG-11 medium on cyanobacterial growth; format: cell-based, Nostoc; conditions: BG-11 medium supplemented with glutamate or glutamine (0, 126, or 250 μmol/L)
Description: Cyanobacterial symbionts were isolated from infected coralloid roots of Cycas micronesica Hill, harvested from three accessioned specimens (vouchered specimens of known provenance) growing in the National Tropical Botanical Garden, Kalaheo, Kauai, and grown as an axenic culture with repeated passages. For analysis of cycad root tissues infected with cyanobacterial symbiots, soil-borne bacteria were removed from root tissues of Cycas micronesica Hill by surface-sterilizing roots immersion in a solution of 70% ethanol for 3 min, followed by a 30 min immersion in 1.6% sodium hypochlorite with 2 drops of surfactant and 3 sequential washes with sterile deionized water. Surface-sterilized root explants (1-2 cm long) were excised and cultured onto standard BG-11 medium, pH 7.1 solidified with gellam gum (Sigma). Root explant cultures were incubated in a controlled environment room with a 16 h photoperiod at a light intensity of 35-45 μmole/m^2/s and temperatures of 25-30° C. After 7-10 days of culture, proliferation of colonies of the cyanobacterial symbiont of the root explants was clearly visible. Serial subculture of individual cyanobacterial colonies ensured the absence of residual BMAA from root tissue. […] Histological verification of culture purity was conducted prior to chemical analyses. […]

[5] = superior frontal gyrus, Alzheimer's, Canadian (first patient)
[6] = superior frontal gyrus, Alzheimer's, Canadian (second patient)
[7] = superior frontal gyrus, PDC (Lytico-bodig), Chamorro, donor one

Row | Compound | Concentration ([1]; specimen 114606) | Concentration ([1]; specimen 114607) | Concentration ([1]; specimen 114609) | quantity of protein-bound BMAA compared to free BMAA ([2]; brain tissue, all other patients) | BMAA recovered from the protein-bound fraction ([2]; brain tissue, one Lytico-Bodig (ALS-PDC) patient with no unbound BMAA) | Protein-bound BMAA ([2]; frontal cortex tissue, all six Chamorro patients who had died from ALS-PDC) [µg/g] | Free BMAA ([2]; frontal cortex tissue, five of six Chamorro patients who had died from ALS-PDC) [µg/g] | Free BMAA [2, 5] [µg/g] | Protein-bound BMAA [2, 5] [µg/g] | Free BMAA [2, 6] [µg/g] | Protein-bound BMAA [2, 6] [µg/g] | Free BMAA [2, 7] [µg/g] | Protein-bound BMAA [2, 7] [µg/g] | BMAA level in brain tissue ([2]; thirteen Canadian patients without Alzheimer's diagnosis who died of other causes) | injected BMAA not eliminated from either urine or feces [3] [%] | stability in dried mammal specimens of great age [4] | cyanobacterial growth (cyanobacterial symbiont)
1 | CNC[C@H](N)C(=O)O [BMAA, β-N-methylamino-L-alanine] | 1,879 μg/g | 7,502 μg/g | 1,287 μg/g | 60-130 fold | more than 1 mg/g | 149 to 1190 | 3 to 10 | 3.4 | 220 | 9.7 | 264 | 3.3 | 433 | did not have detectable levels | 90 | stable | 
2 | NC(=O)CC[C@H](N)C(=O)O [glutamine] |  |  |  |  |  |  |  |  |  |  |  |  |  |  |  |  | increased two-fold
3 | N[C@@H](CCC(=O)O)C(=O)O [GLU, glutamic acid] |  |  |  |  |  |  |  |  |  |  |  |  |  |  |  |  | increased two-fold

— patent US10048278B2, “Screening for neurotoxic amino acid associated with neurological disorders” (priority 2003, dated 2018)
